Activity calls are given as the source filed them. The rule behind the calls is not given here. Where a SMILES comes first, the peptide text is derived from it. Bridges are numbered along the chain shown (N, C = ends). [ ]: non-standard residue; d: D form. ξ: configuration not given here. ξD = NC(CC(=O)O)C(=O)O
Legend:
Assay type in all cases: cell-based
Oocyte [1] = assay: Inhibition of human alpha2/beta2 nAChR expressed in Xenopus laevis oocytes at 10 uM
[2] = target: Neuronal acetylcholine receptor; alpha2/beta4 (Homo sapiens) (UniProt P30926+Q15822); assay: Inhibition of human alpha2/beta4 nAChR expressed in Xenopus laevis oocytes at 10 uM; conditions: Oocyte
[3] = target: Neuronal acetylcholine receptor; alpha3/beta4 (Homo sapiens) (UniProt P30926+P32297); assay: Inhibition of human alpha3/beta4 nAChR expressed in Xenopus laevis oocytes at 10 uM; conditions: Oocyte
[4] = target: Neuronal acetylcholine receptor; alpha3/beta2 (Homo sapiens) (UniProt P17787+P32297); assay: Inhibition of human alpha3/beta2 nAChR expressed in Xenopus laevis oocytes at 10 uM; conditions: Oocyte
[5] = target: Neuronal acetylcholine receptor; alpha4/beta4 (Homo sapiens) (UniProt P30926+P43681); assay: Inhibition of human alpha4/beta4 nAChR expressed in Xenopus laevis oocytes at 10 uM; conditions: Oocyte
[6] = target: Neuronal acetylcholine receptor; alpha4/beta2 (Homo sapiens) (UniProt P17787+P43681); assay: Inhibition of human alpha4/beta2 nAChR expressed in Xenopus laevis oocytes at 10 uM; conditions: Oocyte
[7] = target: Nicotinic acetylcholine receptor alpha6/alpha3/beta4 (Homo sapiens) (UniProt P30926+P32297+Q15825); assay: Inhibition of human alpha6/alpha3/beta4 nAChR expressed in Xenopus laevis oocytes at 10 uM; conditions: Oocyte
Oocyte [8] = assay: Inhibition of human alpha6/alpha3/beta2/beta3 nAChR expressed in Xenopus laevis oocytes at 10 uM
[9] = target: Neuronal acetylcholine receptor; alpha9/alpha10 (Homo sapiens) (UniProt Q9UGM1+Q9GZZ6); assay: Inhibition of human alpha9/alpha10 nAChR expressed in Xenopus laevis oocytes at 10 uM; conditions: Oocyte
[10] = target: Neuronal acetylcholine receptor subunit alpha-7 (Homo sapiens) (UniProt P36544); assay: Inhibition of human alpha7 nAChR expressed in Xenopus laevis oocytes at 10 uM; conditions: Oocyte
Chain of Neuronal acetylcholine receptor subunit alpha-7 (Homo sapiens) (P36544 whole entry): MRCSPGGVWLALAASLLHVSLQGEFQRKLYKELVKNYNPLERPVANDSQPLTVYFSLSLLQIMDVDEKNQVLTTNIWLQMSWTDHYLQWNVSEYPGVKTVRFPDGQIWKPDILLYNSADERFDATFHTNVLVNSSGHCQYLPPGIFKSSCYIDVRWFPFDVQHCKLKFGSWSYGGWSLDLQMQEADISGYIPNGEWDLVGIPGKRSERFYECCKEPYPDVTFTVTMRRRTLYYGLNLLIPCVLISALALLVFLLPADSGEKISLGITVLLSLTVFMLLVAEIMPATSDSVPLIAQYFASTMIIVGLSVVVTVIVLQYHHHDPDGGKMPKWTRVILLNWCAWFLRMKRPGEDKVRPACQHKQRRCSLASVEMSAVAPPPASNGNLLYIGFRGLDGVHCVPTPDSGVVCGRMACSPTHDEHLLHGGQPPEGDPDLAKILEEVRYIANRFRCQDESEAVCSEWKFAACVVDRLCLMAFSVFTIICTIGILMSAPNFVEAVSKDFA

[11] = target: Neuronal acetylcholine receptor subunit alpha-7 (Rattus norvegicus) (UniProt Q05941); assay: Inhibition of rat alpha7 nAChR expressed in Xenopus laevis oocytes assessed as inhibition of acetylcholine-induced current at 100 nM preincubated with compound for 1 hr followed by compound washout and measured for 20 mins by two electrode voltage-clamp assay; conditions: Oocyte
Chain of Neuronal acetylcholine receptor subunit alpha-7 (Rattus norvegicus) (Q05941 whole entry): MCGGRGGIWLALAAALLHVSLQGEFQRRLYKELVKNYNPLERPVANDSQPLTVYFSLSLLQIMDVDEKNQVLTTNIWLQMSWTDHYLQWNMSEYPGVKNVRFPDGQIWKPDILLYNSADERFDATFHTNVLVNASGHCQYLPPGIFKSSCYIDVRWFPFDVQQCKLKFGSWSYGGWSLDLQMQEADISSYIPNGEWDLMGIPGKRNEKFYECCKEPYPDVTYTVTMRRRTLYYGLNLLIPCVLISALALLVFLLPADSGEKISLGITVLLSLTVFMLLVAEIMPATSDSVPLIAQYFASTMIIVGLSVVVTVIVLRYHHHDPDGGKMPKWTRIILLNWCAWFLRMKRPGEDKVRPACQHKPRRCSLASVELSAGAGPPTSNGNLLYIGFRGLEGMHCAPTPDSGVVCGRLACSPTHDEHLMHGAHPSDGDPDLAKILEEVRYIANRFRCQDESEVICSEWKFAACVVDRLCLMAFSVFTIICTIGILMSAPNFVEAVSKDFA

[12] = target: Neuronal acetylcholine receptor subunit alpha-7 (Rattus norvegicus) (UniProt Q05941); assay: Inhibition of rat alpha7 nAChR expressed in Xenopus laevis oocytes assessed as inhibition of acetylcholine-induced current at 10 uM by two electrode voltage-clamp assay; conditions: Oocyte
[13] = target: Neuronal acetylcholine receptor; alpha3/beta2 (Rattus norvegicus) (UniProt P04757+P12390); assay: Inhibition of rat alpha3/beta2 nAChR expressed in Xenopus laevis oocytes assessed as inhibition of acetylcholine-induced current at 10 uM by two electrode voltage-clamp assay; conditions: Oocyte
Oocyte [14] = assay: Inhibition of rat alpha6/alpha3/beta2/beta3 nAChR expressed in Xenopus laevis oocytes assessed as inhibition of acetylcholine-induced current at 10 uM by two electrode voltage-clamp assay
[15] = target: Neuronal acetylcholine receptor; alpha3/beta4 (Rattus norvegicus) (UniProt P04757+P12392); assay: Inhibition of rat alpha3/beta4 nAChR expressed in Xenopus laevis oocytes assessed as inhibition of acetylcholine-induced current at 10 uM by two electrode voltage-clamp assay; conditions: Oocyte
[16] = target: Nicotinic acetylcholine receptor alpha6/alpha3/beta4 (Rattus norvegicus) (UniProt P04757+P12392+P43143); assay: Inhibition of rat alpha6/alpha3/beta4 nAChR expressed in Xenopus laevis oocytes assessed as inhibition of acetylcholine-induced current at 10 uM by two electrode voltage-clamp assay; conditions: Oocyte
[17] = target: Neuronal acetylcholine receptor; alpha2/beta2 (Rattus norvegicus) (UniProt P12389+P12390); assay: Inhibition of rat alpha2/beta2 nAChR expressed in Xenopus laevis oocytes assessed as inhibition of acetylcholine-induced current at 10 uM by two electrode voltage-clamp assay; conditions: Oocyte
Oocyte [18] = assay: Inhibition of rat alpha2/beta4 nAChR expressed in Xenopus laevis oocytes assessed as inhibition of acetylcholine-induced current at 10 uM by two electrode voltage-clamp assay
[19] = target: T1, Neuronal acetylcholine receptor; alpha4/beta2 (Rattus norvegicus) (UniProt P09483+P12390); assay: Inhibition of rat alpha4/beta2 nAChR expressed in Xenopus laevis oocytes assessed as inhibition of acetylcholine-induced current at 10 uM by two electrode voltage-clamp assay; conditions: Oocyte
[20] = target: T1, Neuronal acetylcholine receptor; alpha4/beta2 (Rattus norvegicus); assay: Inhibition of rat alpha4/beta4 nAChR expressed in Xenopus laevis oocytes assessed as inhibition of acetylcholine-induced current at 10 uM by two electrode voltage-clamp assay; conditions: Oocyte
[21] = target: Nicotinic acetylcholine receptor alpha9/alpha10 (Rattus norvegicus) (UniProt P43144+Q9JLB5); assay: Inhibition of rat alpha9/alpha10 nAChR expressed in Xenopus laevis oocytes assessed as inhibition of acetylcholine-induced current at 10 uM by two electrode voltage-clamp assay; conditions: Oocyte
Oocyte [22] = assay: Inhibition of mouse alpha1/beta1/delta/epsilon nAChR expressed in Xenopus laevis oocytes assessed as inhibition of acetylcholine-induced current at 10 uM by two electrode voltage-clamp assay
[23] = Inhibition of rat alpha6/alpha3/beta2/beta3 nAChR expressed in Xenopus laevis oocytes assessed as inhibition of acetylcholine-induced current by two electrode voltage-clamp assay; conditions: Oocyte
[24] = Inhibition of rat alpha2/beta4 nAChR expressed in Xenopus laevis oocytes assessed as inhibition of acetylcholine-induced current by two electrode voltage-clamp assay; conditions: Oocyte
[25] = Inhibition of mouse alpha1/beta1/delta/epsilon nAChR expressed in Xenopus laevis oocytes assessed as inhibition of acetylcholine-induced current by two electrode voltage-clamp assay; conditions: Oocyte

With `CC[C@H](C)[C@@H]1NC(=O)[C@H](CC(=O)O)NC(=O)[C@@H]2CCCN2C(=O)[C@H](CC(N)=O)NC(=O)[C@H](CCC(N)=O)NC(=O)[C@H](CC(C)C)NC(=O)[C@H]([C@@H](C)CC)NC(=O)[C@@H]2CSSC[C@H](NC(=O)[C@@H](N)CC(=O)O)C(=O)N[C@@H](CSSC[C@@H](C(N)=O)NC1=O)C(=O)N[C@@H](CO)C(=O)N[C@@H](CCC(=O)O)C(=O)N1CCC[C@H]1C(=O)N1CCC[C@H]1C(=O)N2` (H-DCCSEPPCILQNPDIC-NH2; disulfide 2-8, 3-16) the inhibition (Oocyte [1]) was “inactive”, the inhibition [2] was “inactive” and the inhibition [3] was “inactive”. The inhibition [4] was “inactive”, the inhibition [5] was “inactive” and the inhibition [6] was “inactive”. For the same compound, the inhibition [7] was “inactive”, the inhibition (Oocyte [8]) was “inactive” and the inhibition [9] was “inactive”. For the same compound, the inhibition [10] was “inactive”, the inhibition [11] was “inactive” and the inhibition [12] was “inactive”. For the same compound, the inhibition [13] was “inactive”, the inhibition (Oocyte [14]) was “inactive” and the inhibition [15] was “inactive”. The inhibition [16] was “inactive”, the inhibition [17] was “inactive” and the inhibition (Oocyte [18]) was “inactive”. The inhibition [19] was “inactive”, the inhibition [20] was “inactive” and the inhibition [21] was “inactive”. The inhibition (Oocyte [22]) was “inactive”.

In the case of `CC[C@H](C)[C@@H]1NC(=O)[C@H](CC(=O)O)NC(=O)[C@@H]2CCCN2C(=O)[C@H](CC(N)=O)NC(=O)[C@H](CCC(N)=O)NC(=O)[C@H](CC(C)C)NC(=O)[C@H]([C@@H](C)CC)NC(=O)[C@@H]2CSSC[C@H](NC(=O)C(N)CC(=O)O)C(=O)N[C@@H](CSSC[C@@H](C(N)=O)NC1=O)C(=O)N[C@@H](CO)C(=O)N[C@@H](C)C(=O)N1CCC[C@H]1C(=O)N1CCC[C@H]1C(=O)N2` (stereo not given in full) (H-[ξD]CCSAPPCILQNPDIC-NH2; disulfide 2-8, 3-16), the IC50 [23] is reported as 0.112 µM, the IC50 [24] is reported as > 10 µM and the IC50 [25] is reported as > 10 µM.

Reference: ChEMBL document CHEMBL6134861 (J Med Chem, 2025)
